Laboratory results from US5066666A, “Aminoazole derivatives and their production and use” (Sumitomo Pharmaceuticals Company, Limited, priority 1986, dated 1991).
Read-outs that look alike come from different tables or passages of the source.

Legend:
Arthus reaction [1] = conditions: background statement; cited from earlier work
adjuvant arthritis [2] = conditions: background statement; cited from earlier work
adjuvant arthritis [3] = experiment: Rat-Adjuvant Arthritis Test; format: in vivo, male Sprague-Dawley rats; conditions: for effect in rat adjuvant arthritis test, in words: in vivo; for minimal effective dose: Rattus norvegicus, po, orally once a day for 5 days (day 15 to 19), lowest dose with significant reduction (p<0.001) of foot volume, read-out: Minimum Effective Dose Adjuvant Arthritis
From the text: Rat adjuvant arthritis test is one of a few and most useful pharmacological model for the investigation of human […] inflammation. It is known that the effective compounds to this model system are useful for treatment of rheumatoid arthritis, such as steroids or non-steroidal anti-inflammatory drugs (Oyo Yakuri, 5, 169 (1971).
According to the method of Winter et al., Arth. Rheum., 9, 394 (1966), male Sprague-Dawley rats, 6 weeks of age, were given subplantar injection of the adjuvant consisting of 1 mg of killed Mycobacterium butyricum (Difco) and 0.2 ml of liquid paraffin. Fourteen days after, the rats with established arthritis were treated by the drug as follows: the test compound was suspended in 5% gum arabic solution and orally given once a day for 5 days, day 15 to day 19. Control rats were given gum arabic in the same way. On day 19, the volume of right foot was determined with a plethusometer. The lowest dose which gave significant reduction (p<0.001)of the foot volume from that of the control group was regarded as a minimum effective dose (MED).

Arthus reaction [4] = experiment: Mice-Arthus Test; format: in vivo, male BABL/c mice; conditions: for minimal effective dose: Mus musculus, 3 h, orally 24 hr and 1 hr before the challenge, read-out: Minimum Effective Dose Arthus
Method: The activity of effect for rheumatoid arthritis may be estimated by effect for Arthus reaction. […] Two weeks later, mice were boosted by the i.v. injection of 8×10^7 SRBC and 5 day later the animals were challenged by the subcutaneous injection of 1×10^8 SRBC in 25 μl of PBS into the right hind footpad. The thickness of the SRBC-injection right hind paw and contralateral left hind paw were measured with micrometer 3 hr after the challenge. The difference between these two measurements is regarded as the oedema due to the Arthus reaction. Percentage inhibition of the reaction was determined by comparison with the positive control group. The test compounds were administered orally 24 hr and 1 hr before the challenge.

5-lipoxygenase = biological target: T1, 5-lipoxygenase (Cavia porcellus, UniProt A0A286X958); experiment: 5-Lypoxygenase Inhibitory Test; format: cell-based, Hartley guinea pigs; conditions: PMNs from guinea pigs, A23187 stimulated, [14C] arachidonic acid; Inhibition (%) classes
T1 construct: polymorphonuclear leukocytes (PMNs) from Hartley guinea pigs; endogenous in cells; host or cells: casein-elicited peritoneal polymorphonuclear leukocytes of Hartley guinea pigs (intact cells)
T1 sequence (A0A286X958 1-674): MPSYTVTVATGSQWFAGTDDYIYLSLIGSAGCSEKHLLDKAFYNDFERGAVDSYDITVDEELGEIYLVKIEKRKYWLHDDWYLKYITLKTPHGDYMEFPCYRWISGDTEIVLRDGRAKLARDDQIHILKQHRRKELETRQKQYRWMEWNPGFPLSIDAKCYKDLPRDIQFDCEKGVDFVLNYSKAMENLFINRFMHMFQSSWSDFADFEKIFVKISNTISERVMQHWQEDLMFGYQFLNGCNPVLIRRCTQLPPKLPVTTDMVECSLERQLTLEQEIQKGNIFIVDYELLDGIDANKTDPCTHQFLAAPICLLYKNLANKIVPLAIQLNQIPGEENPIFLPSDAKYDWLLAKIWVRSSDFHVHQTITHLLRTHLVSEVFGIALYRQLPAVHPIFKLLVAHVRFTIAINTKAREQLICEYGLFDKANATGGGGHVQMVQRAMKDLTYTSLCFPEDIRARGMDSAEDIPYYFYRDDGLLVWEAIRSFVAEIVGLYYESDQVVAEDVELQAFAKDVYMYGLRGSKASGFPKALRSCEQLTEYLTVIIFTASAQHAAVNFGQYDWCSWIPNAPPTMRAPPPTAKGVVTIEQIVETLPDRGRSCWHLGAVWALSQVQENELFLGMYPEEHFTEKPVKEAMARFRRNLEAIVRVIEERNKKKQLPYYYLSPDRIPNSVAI
Method: According to the method of Harvey et al., J. Pharmacol. Meth., 9, 147-155 (1983), polymorphonuclear leukocytes (PMNs) from Hartley guinea pigs weighting 280 to 350 g were elicited by intraperit oneal injection of 2% casein suspension (10 ml/100 g guiner pig weight), and collected 16-18 hrs later. The cells were washed with saline and finally suspended at 2.39×10^7 cells/ml in Krebs Ringer Bicarbonate buffer (KBR) pH 7.4.
935 μl of PMNs were aliquoted into 15 ml glass tubes and prewarmed to 37° C. in a shaking water bath. Drugs (10 μl of dimethylsulfoxide (DMSO)) were added 10 minutes prior to the addition of 1-^14 C-arachidonic acid (New England Neuclear Co.; 50 μl of 2 μCi/mlKBR) and calciumionophor, A23187 (Calbiochem Boehring Co.; 5 μl of 1 mg/mlDMSO). The reaction was terminated after a further 10 min by the addition of 0.2M citric acid (100 μl). Unstimulated controls were also included to determine the increased metabolism of arachidonic acid due to A23187. Samples were diluted with water (4 ml) and extracted twice with ethyl acetate (5 ml). The ethyl acetate was concentrated under a stream of nitrogen and two-thirds of the residue was applied to TLC plates. The plates were developed in toluene:dioxane:acetic acid=65:34:1.5at 10° C.
Radiochromatographic analysis of the labelled metabolites of [^14 C] arachidonic acid utilized a Berthold LB283 TLC Linear Analyzer. In samples and controls, a ratio of radioactivity of 5-HETE in metabolites to all of metabolites of [^14 C] arachidonic acid was calculated, and results were determined as percent inhibition calculated from those retios.

[5] = background statement, clinical use, cited from earlier work

Structure (SMILES)	effect in Arthus reaction, in words (Arthus reaction [1])	effect in adjuvant arthritis test, in words (adjuvant arthritis [2])	minimal effective dose (adjuvant arthritis [3]) [mg/kg]	minimal effective dose (Arthus reaction [4]) [mg/kg]	Activity of Inhibition (5-lipoxygenase) (5-lipoxygenase)	other results
CC(C)(S)[C@@H](N)C(=O)O [D-Penicillamine]	non-effective	non-effective				Adjuvant Arthritis (result in words) (adjuvant arthritis [3]; at 200 mg/kg): non-effective; effect in rat adjuvant arthritis test, in words (adjuvant arthritis [3]): non-effective; effect in mice Arthus reaction test, in words (Arthus reaction [4]; mouse, in vivo): non-effective
CNc1nc(C(C)c2ccc(-c3ccccc3)c(F)c2)cs1 (stereo not drawn) [Example 2, 4-[1-(2-fluoro-4-biphenylyl)ethyl]-2-methylaminothiazole]			25	10		
CC(c1ccc(-c2ccccc2)c(F)c1)c1coc(N)n1 (stereo not drawn) [Example 7, 2-Amino-4-(1-(2-fluoro-4-biphenylyl)ethyl)oxazole]			10	10		
CC(c1cccc(C(=O)c2ccccc2)c1)c1nc(N(C)C)no1 (stereo not drawn) [Example 11, 3-dimethylamino-5-(1-(3-benzoylphenyl)ethyl)-1,2,4-oxadiazole]			2.5	10		
CC(c1ccc(-c2ccccc2)c(F)c1)c1nc(N)no1 (stereo not drawn) [Example 21, 3-amino-5-(1-(2-fluoro-4-biphenylyl)ethyl)-1,2,4-oxadiazole]			2.5	10	++ (40-70%)	
CC(c1cccc(C(=O)c2ccccc2)c1)c1nc(N)no1 (stereo not drawn) [Example 22]			2.5	50	+++ (70%<)	
CC(c1ccc(-c2ccccc2)c(F)c1)c1csc(N(C)C)n1 (stereo not drawn) [Example 48, 4-(1-(2-fluoro-4-biphenylyl)ethyl)-2-dimethylaminothiazole]			10	50		
CC(c1cccc(C(=NO)c2ccccc2)c1)c1nc(N)no1 (stereo not drawn) [Example 65]					+++ (70%<)	
CN(C)c1noc(Cc2cccc(C(=NO)c3ccccc3)c2)n1 [Example 67]			10	50	+++ (70%<)	
CC(c1cccc(C(=O)c2ccccc2)c1)c1cc(N)on1 (stereo not drawn) [Example 74]			2.5	50		
c1ccc(CCNc2nc(-c3ccccc3)cs2)cc1 [fanetizole, 2-phenethylamino-4-phenylthiazole]	effective	non-effective				
c1ccc([C@H]2CN3CCSC3=N2)cc1 [levamizole]	effective	non-effective		50		Adjuvant Arthritis (result in words) (adjuvant arthritis [3]; at 50 mg/kg): non-effective; effect in rat adjuvant arthritis test, in words (adjuvant arthritis [3]): non-effective; side effects [5]: serious side effects; side effects ([5]; listed as Levamizole): many severe side-effects
O=C(Nc1nc(-c2ccccc2)cs1)OCC(Cl)(Cl)Cl [lotifazole, 4-phenyl-2-(2',2',2'-trichloroethoxycarboxamido)thiazole]	effective	non-effective				
